Test results reported in patent publication US9744250B2, “Chemical model of a neurodegenerative disease, method for preparation and uses of same” (priority 2012, dated 2017).

Columns and labels:
caspase-9 = assay: Caspase-9 activity (Ac-LEHD-AFC cleavage) in SH-SY5Y cells; format: cell-based, human; settings: 1 mM, 96 h
Method: Measurement of the activities of the various caspases is based on the ability of the caspases to cleave specific fluorescent substrates: Ac-DEVD-AFC for caspase-3, Ac-IETD-AFC for caspase-8, or Ac-LEHD-AFC for caspase-9. SH-SY5Y neuronal cells were incubated in 48-well plates with either furosemide pyridinium (1 mM) for 96 h or with MPP+ (1 mM) for 6 h, then 24 h of incubation with no MPP+. After incubation, the cells were trypsinized, then rinsed with PBS and counted, then harvested in 100 μl of buffer containing 30 mM HEPES, 0.3 mM EDTA, 100 mM NaCl, 0.15% Triton X-100, and 10 mM DTT. The cell extract was then incubated for 1 hour at 37° C. with the specific substrate (100 μM) in a 96-well plate. Fluorescence was measured at λex400 nm and λem505 nm in a fluorescence detection plate reader (TECAN Infinite M1000) (Yue et al., supra). The results were expressed as percentages relative to the measured activity of cells cultured under the same conditions and not subjected to any treatment.

[1] = tested on: mitochondria isolated from rat striatum; assay: Respiratory control (oxygen consumption) of isolated striatum mitochondria; format: biochemical
Method: The animal was then decapitated in order to collect from the brain either the cortex or the striatum, which were quickly placed in a Potter Elvejhem® containing 6 ml of extraction buffer at 4° C. (250 mM sucrose, 40 mM KCl, 2 mM EGTA, lmg/ml BSA, 20 mM Tris, pH=7.2). This mixture was homogenized to break open the cells and release the mitochondria and then centrifuged at 2000 g for 8 minutes to remove the larger membrane debris and the nuclei from the pellet. The supernatant was then recovered and centrifuged at 13,000 g for 11 minutes. The supernatant was discarded while the pellet containing a mitochondria-rich fraction was resuspended in 500 μl of respiration buffer at 4° C. (300 mM D-mannitol, 10 mM KCl, 10 mM KH2PO4, 5 mM MgCl2, pH=7.2). […]
Added to the polarography chamber (Hansatech) were 30 μl of mitochondria solution (0.2 mg), 460 μL of respiration buffer, 5 μl of test compound solution (meaning MPP+ or furosemide pyridinium) (or its solubilizing solvent). […] The effect of the compound on respiratory control was evaluated (ratio of stage 3 to 4), which corresponds to the coupling of the respiratory chain, or in other words the ATP synthesis at complex V and the oxygen consumption due to complexes I to IV. The results are expressed as percentages of the value measured for mitochondria not treated with the test compound (but treated with the solubilizing solvent).

[2] = tested on: alpha-synuclein in the striata; assay: Immunolabeling of alpha-synuclein in coronal striatum sections of exposed rats; format: in vivo, rat; settings: 20 mg/kg/day oral 7 days, sacrificed 5 weeks after last dose
From the text: Male albino Sprague Dawley rats (adults weighing […]) were housed in a temperature-controlled room with free access to food and water.
A platform for electrophysiological and behavioral monitoring of the rats was used. For this, a subcutaneous implant (Data Science) was placed in the rats which allowed the EEG to be recorded by telemetry, leaving the animal completely free to move about. The cage was equipped with a video camera (10 frames per second) and an infrared light to allow recordation of the animal's activity. The EEG and video sequences were recorded in sequences of 10 seconds, and a set of variables was calculated for each sequence. The use of dedicated software allowed integration of these variables over the entire recording to detect changes in the animal's activity, EEG, and circadian rhythms. Each animal served as its own control because it was recorded for 5 days prior to furosemide pyridinium administration. The solution of furosemide pyridinium (20 mg) was dissolved in dimethylsulfoxide (DMSO, 200 μl) and then diluted with water (50 ml). The solution was replaced every day and administered for 7 days in the drinking water at a dose of 20 mg/kg. The rats were then sacrificed 5 weeks after the last dose. The rats were anesthetized with pentobarbital and infused intracardially with saline ([…]), then fixed with 4% paraformaldehyde. […]

complex I = assay: Complex I activity of mitochondria from striata of exposed mice; format: in vivo, mouse; settings: 20 mg/kg/day oral 7 days, 30 days after end of exposure
Method: The kinetics of the oxidation reaction of NADH into NAD+ at 340 nm at 37° C. were continuously monitored by spectrophotometry using a JASCO V-530 spectrophotometer or a TECAN 1000M Infinite plate reader, set to a wavelength of 340 nm for 3 min. The amount of mitochondria extract to obtain the maximum activity introduced into the reaction volume was 100 μg with the spectrophotometer and 10 μg with the reader. Each manipulation must be done at substrate saturation, which is an NADH concentration of 160 μM. Mitochondria previously divided into multiple aliquots were frozen, then quickly thawed a few minutes before use. In a first step, the mitochondria extract was introduced into the hypotonic buffer (50 mM KH2PO4 and 10 mM MgCl2, pH=7.2 at 37° C.) for 2 minutes to break open the mitochondrial membranes and access the respiratory chain (Chretien et al., Biochem Biophys Res Commun, 2003, 301(1):222-4). […] The slope of the kinetics was then measured. […] The inhibition percentage was then calculated. […]
For each mouse sacrificed, cortex and striatum samples had been previously collected and processed to extract the mitochondria. The activity of the mitochondrial respiratory chain and of complex I were determined as described in Part B above, in the “Materials and Methods” subsection (without addition of furosemide pyridinium or an analog to the medium).

mice = assay: Lethality of 7-day oral administration in mice; format: in vivo, mouse; settings: daily dose of 20 mg/kg for seven days
Method: Swiss mice were divided into two groups of five animals (experimental and control). The experiments were performed independently two times. The mice of the experimental group were exposed to furosemide pyridinium for 7 days at a daily dose of 20 mg/kg. The furosemide pyridinium was administered orally in the drinking water. The mice were sacrificed 30 days after the end of the furosemide pyridinium treatment.

SMILES: NS(=O)(=O)c1cc(C(=O)[O-])c(-[n+]2cccc(O)c2)cc1Cl [furosemide pyridinium, 4-chloro-2-(3-hydroxypyridinium-1-yl)-5-sulfamoylbenzoate]
- enzymatic activity of caspase-9 compared to untreated cells (caspase-9): 170%
- effect on striatal mitochondria versus cortex mitochondria ([1]; comparison striatum vs cortex): greater on striatal mitochondria
- oxygen consumption of striatum mitochondria ([1]; dose-response): decrease in oxygen consumption
- alpha-synuclein in the striata (immunolabeling) [2]: significant increase
- decrease in activity of complex I of striatal mitochondria vs control animals (complex I): 49%
- lethality (mice): not lethal
